Data published in US9827219B2, “Compositions and methods for lowering levels of high-sensitivity C-reactive protein (HS-CRP) in a subject” (priority 2012, dated 2017).

Experiments:
LDL-C = LDL-C in patients with diabetes mellitus-2 (Example 2); format: in vivo, human; settings: 4 g/day; for Median placebo-adjusted percent change in LDL-C from baseline to study end: 12 weeks, on statin
Description: Parameters (a)-(y) can be measured in accordance with any clinically acceptable methodology. For example, triglycerides, total cholesterol, HDL-C and fasting blood sugar can be sample from serum and analyzed using standard photometry techniques. VLDL-TG, LDL-C and VLDL-C can be calculated or determined using serum lipoprotein fractionation by preparative ultracentrifugation and subsequent quantitative analysis by refractometry or by analytic ultracentrifugal methodology. Apo A1, Apo B and hsCRP can be determined from serum using standard nephelometry techniques. Lipoprotein (a) can be determined from serum using standard turbidimetric immunoassay techniques. LDL particle number and particle size can be determined using nuclear magnetic resonance (NMR) spectrometry. Remnants lipoproteins and LDL-phospholipase A2 can be determined from EDTA plasma or serum and serum, respectively, using enzymatic immunoseparation techniques. Oxidized LDL, intercellular adhesion molecule-1 and interleukin-2 levels can be determined from serum using standard enzyme immunoassay techniques. These techniques are described in detail in standard textbooks, for example Tietz Fundamentals of Clinical Chemistry, 6th Ed. (Burtis, Ashwood and Borter Eds.), WB Saunders Company.
The effect of >96% E-EPA on lipid and inflammatory parameters was evaluated in patients with fasting triglyceride levels ≧150 mg/dl and <499 mg/dl on concomitant statin therapy. Patients with diabetes mellitus-2 were randomized and treated with either 2 g/day >96% E-EPA, 4 g/day >96%, or placebo for twelve weeks. At the end of the treatment period, several diabetes efficacy endpoints were evaluated including, TG, LDL-C, non-HDL-C, VLDL-C, Lp-PLA2, Apo B, TC, HDL-C, VLDL-TG, hs-CRP, oxLDL, and RLP-C.

IL-6 = assay: MARINE study, IL-6; format: in vivo, human; settings: MARINE ITT, week 12
Description: A multi-center, placebo-controlled randomized, double-blind, 12-week study with an open-label extension was performed to evaluate the efficacy and safety of AMR101 in patients with fasting triglyceride levels ≧500 mg/dL. The primary objective of the study was to determine the efficacy of AMR101 2 g daily and 4 g daily, compared to placebo, in lowering fasting TG levels in patients with fasting TG levels ≧500 mg/dL and ≦1500 mg/dL (≧5.65 mmol/L and ≦16.94 mmol/L).
The population for this study was men and women (women of childbearing potential will need to be on contraception or practice abstinence)>18 years of age with a body mass index ≦45 kg/m^2 who were not on lipid-altering therapy or were currently on lipid-altering therapy. Patients currently on statin therapy (with or without ezetimibe) were evaluated by the investigator as to whether this therapy can be safely discontinued at screening, or if it should be continued. If statin therapy (with or without ezetimibe) was to be continued, dose(s) must have been stable for ≧4 weeks prior to randomization. Patients taking non-statin, lipid-altering medications (niacin >200 mg/day, fibrates, fish oil, other products containing omega-3 fatty acids, or other herbal products or dietary supplements with potential lipid-altering effects), either alone or in combination with statin therapy (with or without ezetimibe), must have been able to safely discontinue non-statin, lipid-altering therapy at screening.
Approximately 240 patients were randomized at approximately 50 centers in North America, South America, Central America, Europe, India, and South Africa. The study was a 58- to 60-week, Phase 3, multi-center study consisting of 3 study periods: (1) A 6- to 8-week screening period that included a diet and lifestyle stabilization and washout period and a TG qualifying period; (2) A 12-week, double-blind, randomized, placebo-controlled treatment period; and (3) A 40-week, open-label, extension period.
After confirmation of qualifying fasting TG values, eligible patients entered a 12-week, randomized, double-blind treatment period. At Visit 4 (Week 0), patients were randomly assigned to 1 of the following treatment groups: • AMR101 2 g daily, • AMR101 4 g daily, or • Placebo.
Eligible patients were randomly assigned at Visit 4 (Week 0) to receive orally AMR101 2 g daily, AMR101 4 g daily, or placebo for the 12-week double-blind treatment period. AMR101 was provided in 1 g liquid-filled, oblong, gelatin capsules. The matching placebo capsule was filled with light liquid paraffin and contained 0 g of AMR101. During the double-blind treatment period, patients took 2 capsules (AMR101 or matching placebo) in the morning and 2 in the evening for a total of 4 capsules per day. […]

SMILES: CC/C=C\C/C=C\C/C=C\C/C=C\C/C=C\CCCC(=O)OCC [AMR101, all-cis eicosa-5,8,11,14,17-pentaenoic acid ethyl ester]
- Median placebo-adjusted percent change in LDL-C from baseline to study end (LDL-C; less-controlled diabetes (HbA1c ≧ median of 6.8%)): −5.7%
- Median placebo-adjusted percent change in LDL-C from baseline to study end (LDL-C; total diabetes): −6.3%
- Median placebo-adjusted percent change in LDL-C from baseline to study end (LDL-C; well-controlled diabetes (HbA1c < median of 6.8%)): −6.6%
- LDL-C levels between well-controlled, less-controlled and all diabetic subjects (LDL-C; twelve weeks): no significant decrease in LDL-C levels
- IL-6 change from baseline (median) (IL-6; 2 g/day): 3.4%
- IL-6 end-of-treatment value (median) (IL-6; 2 g/day): 3.0 pg/mL
- IL-6 change from baseline (median) (IL-6; 4 g/day): 0.3%
- IL-6 end-of-treatment value (median) (IL-6; 4 g/day): 2.4 pg/mL
